For `CO/C=C(/C(=O)OC)c1ccccc1COc1ncn(-c2ccccc2Cl)n1` [Compound 12, Methyl α-(2-(N′-(o-chlorophenyl)-triazolyl-3′-oxymethyl)-phenyl)-β-methoxyacrylate], the melting point was found to be 120 °C.

The term melting point denotes the temperature of the solid-liquid transition.

Source of the values: US6380231B1 (priority 1995, dated 2002).
